The target of data set [1] is EngSP (Streptococcus pneumoniae, UniProt Q2MGH6). Briefly: steady-state kinetics, pNP release at […] nm. The settings on record: 50 mM sodium phosphate pH 7.5, 5 mM MgCl2, 25°C. The format is biochemical.
Data set [2] addresses EngCP (Clostridium perfringens, UniProt A0A0H2YQ40). Format: biochemical.
The test system of data set [3] is EngAL. Briefly: steady-state kinetics, pNP release at […] nm. The format is biochemical, Alcaligenes sp. The following applies: 50 mM sodium phosphate pH 7.5, 5 mM MgCl2, 25°C.
Data set [4] concerns the target T1, EngPA (Cutibacterium acnes, UniProt A0ABM7H013).
T1 sequence (A0ABM7H013 1-1321): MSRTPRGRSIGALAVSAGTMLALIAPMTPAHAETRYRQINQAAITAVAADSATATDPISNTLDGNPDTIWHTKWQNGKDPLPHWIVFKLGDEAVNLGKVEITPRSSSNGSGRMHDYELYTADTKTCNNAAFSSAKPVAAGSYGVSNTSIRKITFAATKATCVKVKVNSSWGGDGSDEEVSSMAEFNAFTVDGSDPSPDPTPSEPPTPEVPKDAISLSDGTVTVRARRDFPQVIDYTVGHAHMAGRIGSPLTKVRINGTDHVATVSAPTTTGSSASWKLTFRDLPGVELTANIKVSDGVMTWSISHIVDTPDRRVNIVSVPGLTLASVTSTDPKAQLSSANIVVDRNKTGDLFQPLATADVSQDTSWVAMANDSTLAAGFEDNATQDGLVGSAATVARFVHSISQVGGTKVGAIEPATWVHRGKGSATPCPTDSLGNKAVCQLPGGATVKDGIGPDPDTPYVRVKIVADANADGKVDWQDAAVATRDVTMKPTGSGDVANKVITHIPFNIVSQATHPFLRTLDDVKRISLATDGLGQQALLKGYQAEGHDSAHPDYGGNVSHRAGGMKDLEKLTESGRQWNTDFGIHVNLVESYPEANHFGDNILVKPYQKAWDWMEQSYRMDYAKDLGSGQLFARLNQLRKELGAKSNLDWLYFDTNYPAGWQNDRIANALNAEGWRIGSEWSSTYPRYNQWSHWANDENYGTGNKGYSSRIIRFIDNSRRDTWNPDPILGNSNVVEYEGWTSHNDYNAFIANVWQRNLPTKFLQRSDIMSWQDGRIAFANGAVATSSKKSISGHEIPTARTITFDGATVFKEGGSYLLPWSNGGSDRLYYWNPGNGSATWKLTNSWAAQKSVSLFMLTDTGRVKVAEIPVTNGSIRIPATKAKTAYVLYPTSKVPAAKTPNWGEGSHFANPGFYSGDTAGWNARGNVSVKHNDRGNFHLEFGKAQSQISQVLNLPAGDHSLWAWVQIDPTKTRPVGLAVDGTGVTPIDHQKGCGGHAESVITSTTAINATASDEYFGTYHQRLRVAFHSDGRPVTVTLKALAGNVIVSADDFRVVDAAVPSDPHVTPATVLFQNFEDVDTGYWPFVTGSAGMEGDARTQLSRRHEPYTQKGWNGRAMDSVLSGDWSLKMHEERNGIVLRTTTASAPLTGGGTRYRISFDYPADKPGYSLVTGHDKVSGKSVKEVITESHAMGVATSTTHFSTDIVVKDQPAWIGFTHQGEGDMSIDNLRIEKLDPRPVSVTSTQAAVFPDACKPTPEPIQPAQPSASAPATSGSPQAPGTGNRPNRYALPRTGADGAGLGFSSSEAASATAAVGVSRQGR
Briefly: steady-state kinetics, pNP release at […] nm. Format: biochemical. The following applies: 50 mM sodium phosphate pH 7.5, 5 mM MgCl2, 25°C.

The target of data set [5] is T2, EngEF (Enterococcus faecalis, UniProt Q833X5).
T2 sequence (Q833X5 1-1324): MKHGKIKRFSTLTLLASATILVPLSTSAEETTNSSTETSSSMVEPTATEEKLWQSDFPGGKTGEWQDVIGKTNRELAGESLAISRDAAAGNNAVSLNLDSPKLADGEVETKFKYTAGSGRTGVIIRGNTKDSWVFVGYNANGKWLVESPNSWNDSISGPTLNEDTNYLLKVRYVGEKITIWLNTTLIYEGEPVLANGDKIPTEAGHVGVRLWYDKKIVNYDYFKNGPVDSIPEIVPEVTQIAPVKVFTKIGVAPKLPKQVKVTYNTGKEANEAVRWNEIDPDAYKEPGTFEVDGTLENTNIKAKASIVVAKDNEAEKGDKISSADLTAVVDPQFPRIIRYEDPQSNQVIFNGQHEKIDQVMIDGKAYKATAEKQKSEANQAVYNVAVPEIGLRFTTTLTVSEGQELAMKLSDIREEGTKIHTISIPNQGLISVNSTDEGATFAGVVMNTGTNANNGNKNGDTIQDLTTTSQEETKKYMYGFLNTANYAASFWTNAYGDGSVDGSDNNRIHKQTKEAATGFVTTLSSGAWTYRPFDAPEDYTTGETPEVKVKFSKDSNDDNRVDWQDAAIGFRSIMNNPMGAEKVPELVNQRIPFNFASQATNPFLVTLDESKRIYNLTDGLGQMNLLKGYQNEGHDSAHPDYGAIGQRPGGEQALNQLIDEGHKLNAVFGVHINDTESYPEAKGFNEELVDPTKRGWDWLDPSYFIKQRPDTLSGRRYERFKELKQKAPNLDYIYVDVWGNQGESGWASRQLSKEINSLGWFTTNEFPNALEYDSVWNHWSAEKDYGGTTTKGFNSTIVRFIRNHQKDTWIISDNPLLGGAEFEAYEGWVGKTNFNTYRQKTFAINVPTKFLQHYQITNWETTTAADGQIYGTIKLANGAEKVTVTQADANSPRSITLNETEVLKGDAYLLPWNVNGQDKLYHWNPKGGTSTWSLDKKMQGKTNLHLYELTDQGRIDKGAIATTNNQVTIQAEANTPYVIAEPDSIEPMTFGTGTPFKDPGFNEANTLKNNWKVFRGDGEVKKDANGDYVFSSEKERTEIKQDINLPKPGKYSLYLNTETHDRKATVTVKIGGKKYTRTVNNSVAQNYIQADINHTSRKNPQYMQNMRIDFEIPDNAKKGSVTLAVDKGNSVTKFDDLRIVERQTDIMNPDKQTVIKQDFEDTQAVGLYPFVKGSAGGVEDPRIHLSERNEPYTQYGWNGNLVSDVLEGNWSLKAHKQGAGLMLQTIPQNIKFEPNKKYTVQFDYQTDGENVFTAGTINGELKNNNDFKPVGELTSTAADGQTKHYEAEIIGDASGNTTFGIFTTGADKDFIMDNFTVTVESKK
Briefly: steady-state kinetics, pNP release at […] nm. The settings on record: 50 mM sodium phosphate pH 7.5, 5 mM MgCl2, 25°C.

Substrate in data set [6]: CC(=O)N[C@H]1[C@H](O[C@H]2[C@@H](O)[C@@H](CO)O[C@H](Oc3ccc([N+](=O)[O-])cc3)[C@@H]2NC(C)=O)O[C@H](CO)[C@@H](O)[C@@H]1O
Briefly: purified protein. The settings on record: 50 mM sodium phosphate pH 7.5, 5 mM MgCl2, 25°C.

Drawing on publication PMC2553423 (Glycobiology, 2008), this text covers Km and kcat for two molecules.

What is called Km is the concentration of substrate that gives half-maximal velocity. As for `CC(=O)N[C@H]1[C@@H](Oc2ccc([N+](=O)[O-])cc2)O[C@H](CO)[C@H](O)[C@@H]1O[C@@H]1O[C@H](CO)[C@H](O)[C@H](O)[C@H]1O` [Galβ1,3GalNAcα1pNP], the Km was found to be 40.4 µM in data set [1]; 70.9 µM in data set [2]; 33.9 µM in data set [3]; 3.78 µM in data set [4]; 47.9 µM in data set [5].

B1: EngEF (Enterococcus faecalis V583) (protein)
chain: MKHGKIKRFSTLTLLASATILVPLSTSAEETTNSSTETSSSMVEPTATEEKLWQSDFPGGKTGEWQDVIGKTNRELAGESLAISRDAAAGNNAVSLNLDSPKLADGEVETKFKYTAGSGRTGVIIRGNTKDSWVFVGYNANGKWLVESPNSWNDSISGPTLNEDTNYLLKVRYVGEKITIWLNTTLIYEGEPVLANGDKIPTEAGHVGVRLWYDKKIVNYDYFKNGPVDSIPEIVPEVTQIAPVKVFTKIGVAPKLPKQVKVTYNTGKEANEAVRWNEIDPDAYKEPGTFEVDGTLENTNIKAKASIVVAKDNEAEKGDKISSADLTAVVDPQFPRIIRYEDPQSNQVIFNGQHEKIDQVMIDGKAYKATAEKQKSEANQAVYNVAVPEIGLRFTTTLTVSEGQELAMKLSDIREEGTKIHTISIPNQGLISVNSTDEGATFAGVVMNTGTNANNGNKNGDTIQDLTTTSQEETKKYMYGFLNTANYAASFWTNAYGDGSVDGSDNNRIHKQTKEAATGFVTTLSSGAWTYRPFDAPEDYTTGETPEVKVKFSKDSNDDNRVDWQDAAIGFRSIMNNPMGAEKVPELVNQRIPFNFASQATNPFLVTLDESKRIYNLTDGLGQMNLLKGYQNEGHDSAHPDYGAIGQRPGGEQALNQLIDEGHKLNAVFGVHINDTESYPEAKGFNEELVDPTKRGWDWLDPSYFIKQRPDTLSGRRYERFKELKQKAPNLDYIYVDVWGNQGESGWASRQLSKEINSLGWFTTNEFPNALEYDSVWNHWSAEKDYGGTTTKGFNSTIVRFIRNHQKDTWIISDNPLLGGAEFEAYEGWVGKTNFNTYRQKTFAINVPTKFLQHYQITNWETTTAADGQIYGTIKLANGAEKVTVTQADANSPRSITLNETEVLKGDAYLLPWNVNGQDKLYHWNPKGGTSTWSLDKKMQGKTNLHLYELTDQGRIDKGAIATTNNQVTIQAEANTPYVIAEPDSIEPMTFGTGTPFKDPGFNEANTLKNNWKVFRGDGEVKKDANGDYVFSSEKERTEIKQDINLPKPGKYSLYLNTETHDRKATVTVKIGGKKYTRTVNNSVAQNYIQADINHTSRKNPQYMQNMRIDFEIPDNAKKGSVTLAVDKGNSVTKFDDLRIVERQTDIMNPDKQTVIKQDFEDTQAVGLYPFVKGSAGGVEDPRIHLSERNEPYTQYGWNGNLVSDVLEGNWSLKAHKQGAGLMLQTIPQNIKFEPNKKYTVQFDYQTDGENVFTAGTINGELKNNNDFKPVGELTSTAADGQTKHYEAEIIGDASGNTTFGIFTTGADKDFIMDNFTVTVESKK
As a reminder, the kcat is the maximal rate divided by the concentration of active sites. On to B1, for which, in data set [6], the Michaelis constant (Km) amounted to 20.03 µM and the kcat came out at 9.43 s⁻¹.
